{"source": "patent US20110033376A1", "about": "“Treatment of Melanoma” (priority 2007, published 2011)", "key": {"WM266-4 melanoma cells [1]": {"tested_on": "WM266-4 melanoma cells", "assay": "Apo-ONE Homogeneous Caspase-3/7 assay (induction of apoptosis)", "type": "cell-based, human", "conditions": "WM266-4, 24 hours incubation; for EC50: caspase 3/7", "procedure": "(§1) 3 human melanoma cell lines (A375, G-361, WM266-4) were maintained in RPMI 1640 culture medium (Sigma, UK) containing 10% (v/v) heat inactivated foetal bovine serum (Sigma, UK) and 2 mM […] at 37° C. in 5% humidified CO2. Cells were harvested, washed, re-suspended into growth medium and counted (Beckman-Coulter Vi-CELL XR). Cells were plated onto the middle 240 wells of 384 tissue culture plates at 1.6×10^5 to 2.4×10^5 cells/ml in 12.5 μl/well aliquots. 50 μl of growth media was aliquoted into the outer wells. 2 plates were prepared per cell line. Plates were incubated overnight at 37° C., in 5% humidified CO2.\n(§2) Dexanabinol was prepared in growth medium at 2 times the final assay concentration at 125, 31.3, 7.81, 2.00, 0.49, 0.12, 0.031 and 0.008 μM (DMSO concentration was kept constant across the dilution range at 0.5%).\n(§3) Cisplatin was used as a positive control. The final assays concentrations were 10, 2.5, 0.63, 0.156, 0.039, 0.010, 0.002 and 0.0006 μg/ml. […] 12.5 μl of growth media was added to the media control wells. The plates were incubated for 24 hours at 37° C., in 5% humidified CO2.\n(§4) Caspase 3/7 levels were assessed by Apo-ONE© Homogeneous Caspase-3/7 assay kit. Fluorescence was measured using a FlexStation© II^384 plate reader at 1, 2, 3 and 4 hours after addition of the caspase substrate. The 4 hour readings were used for analysis."}, "A375 melanoma cells [2]": {"tested_on": "A375 melanoma cells", "assay": "Apo-ONE Homogeneous Caspase-3/7 assay (induction of apoptosis)", "type": "cell-based, human", "conditions": "A375, 24 hours incubation", "procedure": "as §1, §2, §3, §4"}, "G-361 melanoma cells [3]": {"tested_on": "G-361 melanoma cells", "assay": "Apo-ONE Homogeneous Caspase-3/7 assay (induction of apoptosis)", "type": "cell-based, human", "conditions": "G-361, 24 hours incubation", "procedure": "as §1, §2, §3, §4"}, "[4]": {"assay": "Preliminary pharmacokinetic (PK) and maximum tolerated dose (MTD) study", "type": "in vivo, CD1 A375 tumour-bearing mice", "conditions": "CD1 mice", "procedure": "(§5) Having established that dexanabinol inhibited melanoma cell proliferation in vitro, we then sought to establish whether the compound was active in vivo. A preliminary pharmacokinetic (PK) and maximum tolerated dose (MTD) study was carried out to determine whether therapeutically effective dose levels of dexanabinol could be achieved in CD1 A375 tumour-bearing mice. […] On the basis of this, a single-dose efficacy study was undertaken. Dexanabinol was diluted in a vehicle of 10% Cremophor/Ethanol (1:1 v/v) in saline. Control mice received vehicle alone."}, "[5]": {"tested_on": "human melanoma cell lines (A375, G-361, WM266-4)", "assay": "Caspase 3/7 apoptosis induction, summary over melanoma cell lines", "type": "cell-based", "procedure": "as §1, §2, §3, §4"}, "[6]": {"tested_on": "all tested human melanoma cell lines", "assay": "In vitro cell proliferation assays, summary over all tested lines", "type": "cell-based", "procedure": "(§6) The cell viability assay was performed in parallel on the same plate for each line using CellTiter-Blue© (Promega) reagent. Briefly, 25 μl of CellTiter-Blue© (Promega) reagent was added to each well. The plates were shaken for 1 minute at 500 rpm and then incubated at 37° C., 5% CO2 for 4 hours.\n(§7) The ability of dexanabinol to inhibit melanoma cell growth was also studied in 3 melanoma cell lines (A375, UACC62, Malme-3M) using the Sulforhodamine B (SRB) assay.\n(§8) The SRB growth inhibition assay was conducted over 24 and 5 day exposure periods. Following exposure, the cells were fixed, stained with SRB and read on a SpectorMax® 250 microplate spectrophotometer system plate reader."}, "A375 melanoma cells [7]": {"tested_on": "A375 melanoma cells", "assay": "Sulforhodamine B (SRB) growth inhibition assay", "type": "cell-based, human", "procedure": "as §7\n(§9) Sterile solutions of the final concentrations of dexanabinol were prepared (0.001 μM to 100 μM in 0.5% DMSO).\n(§10) The cells were incubated with drug concentrations in 0.5% DMSO (100 μl total volume per well) at 37° C. in 5% CO2 for 5 days. Control wells contained cells plus 0.5% DMSO plus medium.\nas §8"}, "UACC62 melanoma cells": {"tested_on": "UACC62 melanoma cells", "assay": "Sulforhodamine B (SRB) growth inhibition assay", "type": "cell-based, human", "conditions": "UACC62, 5-day exposure", "procedure": "as §7, §9, §10, §8"}, "A375 melanoma cells [8]": {"tested_on": "A375 melanoma cells", "assay": "Clonogenic assay, time-course effect on cell proliferation", "type": "cell-based, human", "conditions": "A375, 1 hour vs 24 hours exposure", "procedure": "The time-course effect of dexanabinol on cell proliferation in one melanoma cell line, A375, was examined using the clonogenic assay method.\nA375 cells were harvested from the growing cell culture and counted. Cells were diluted to 1.0×10^5/ml and seeded 2 ml/well to 6 well plates.\nThe cells were incubated overnight at 37° C. in humidified incubator 95% air+5% CO2.\nThe cells were treated with dexanabinol at 4 doses up to 20 μM at 3 exposure periods (1 hour, 6 hours and 24 hours).\nAfter each exposure period, the cells were harvested from the wells by washing twice with PBS then adding 0.2 ml of single strength trypsin to each well and incubating at 37° C. until the cells detached. Cell suspensions were counted at 1/10 dilution and then diluted to 1/10, 1/100, 1/1000.\n10 cm dishes (containing 7 ml fresh medium) were seeded with 3 different cell densities for dexanabinol treatment and control treatment. When colonies of suitable size formed in the control dishes, dishes were fixed, stained and counted.\nPercentage survival in the dexanabinol treated A375 cells was calculated using the following equation: […]"}, "Malme-3M melanoma cells": {"tested_on": "Malme-3M melanoma cells", "assay": "Sulforhodamine B (SRB) growth inhibition assay", "type": "cell-based", "conditions": "Homo sapiens, 120 h, 5-day exposure", "procedure": "as §7, §9, §10, §8"}, "[9]": {"tested_on": "3 melanoma cell lines (A375, G-361, WM266-4)", "assay": "CellTiter-Blue cytotoxic response, summary over 3 melanoma cell lines", "type": "cell-based", "conditions": "Homo sapiens, 24 h, read-out: IC50 of cytotoxic response", "procedure": "Cells were harvested, washed, re-suspended into growth medium and counted (Beckman-Coulter Vi-CELL XR). […] 50 μl of growth media was aliquoted into the outer wells. 2 plates were prepared per cell line. Plates were incubated overnight at 37° C., in 5% humidified CO2.\nThe final assays concentrations were 10, 2.5, 0.63, 0.156, 0.039, 0.010, 0.002 and 0.0006 μg/ml. […] 12.5 μl of growth media was added to the media control wells. The plates were incubated for 24 hours at 37° C., in 5% humidified CO2.\nThe plates were shaken for 1 minute at 500 rpm and then incubated at 37° C., 5% CO2 for 4 hours."}, "[10]": {"tested_on": "A375 human tumour xenograft", "assay": "Single-dose efficacy study, human melanoma cell xenograft growth", "type": "in vivo", "conditions": "single dose 100 mg/kg i.v., CD1 nude mice bearing A375 xenograft", "procedure": "as §5\n10 mice received 100 mg/kg i.v. dexanabinol. 10 mice received Vehicle (10 ml/kg) Mice were implanted with 1×10^7 A375 human melanoma cells, in 50 μl of medium, on the flank. Once tumours were palpable (approx 5 mm×5 mm) 20 mice were treated with either dexanabinol or vehicle (as outlined above). […] Tumour size was measured 3 times a week after treatment. The treatment lasted 4 weeks"}, "WM266-4 melanoma cells [11]": {"tested_on": "WM266-4 melanoma cells", "assay": "CellTiter-Blue cell viability assay", "type": "cell-based, human", "conditions": "WM266-4, 24 hours incubation; for IC50: CellTiter-Blue", "procedure": "as §1, §2, §3, §6"}, "A375 melanoma cells [12]": {"tested_on": "A375 melanoma cells", "assay": "CellTiter-Blue cell viability assay", "type": "cell-based, human", "conditions": "A375, 24 hours incubation; for IC50: CellTiter-Blue", "procedure": "as §1, §2, §3, §6"}, "G-361 melanoma cells [13]": {"tested_on": "G-361 melanoma cells", "assay": "CellTiter-Blue cell viability assay", "type": "cell-based, human", "conditions": "G-361, 24 hours incubation; for IC50: CellTiter-Blue", "procedure": "as §1, §2, §3, §6"}}, "data": [{"compound": "CCCCCCC(C)(C)c1cc(O)c2c(c1)OC(C)(C)[C@H]1CC=C(CO)C[C@H]21", "note": "[Dexanabinol, 1,1 dimethyl heptyl-(3S,4S)-7-hydroxy-Δ^6-tetrahydrocannabinol]", "values": [{"measurement": "EC50", "setting": "WM266-4 melanoma cells [1]; Homo sapiens, WM 266-4", "result": 13, "unit": "µM"}, {"measurement": "Rank of apoptosis induction", "setting": "WM266-4 melanoma cells [1]", "result": "*** (good apoptosis induction and decrease in proliferation (>70%))"}, {"measurement": "Rank of apoptosis induction", "setting": "A375 melanoma cells [2]", "result": "ND*** (good apoptosis induction and decrease in proliferation (>70%))"}, {"measurement": "Rank of apoptosis induction", "setting": "G-361 melanoma cells [3]", "result": "ND* (weak apoptosis induction and decrease in proliferation (<35%))"}, {"measurement": "Plasma concentration", "setting": "[4]; at the MTD, 100 mg/kg i.v. single dose", "result": 10, "unit": "µM"}, {"measurement": "MTD", "setting": "[4]; mouse, in vivo, iv, i.v. single dose", "result": 100, "unit": "mg/kg"}, {"measurement": "Concentration of peak response in apoptosis", "setting": "[5]; 24 hours incubation, response dropped at the highest concentration", "result": 2.5, "unit": "µM"}, {"measurement": "Mode of cell death", "setting": "[5]; caspase 3/7", "result": "induced apoptotic cell death in a caspase 3/7 dependent manner"}, {"measurement": "Mean concentration at which profoundly cytotoxic", "setting": "[6]; all tested human melanoma cell lines", "result": "~14"}, {"measurement": "Drug concentrations at which in vitro anti-tumour effects were observed", "setting": "[6]; in vitro", "result": "10 to 20", "unit": "µM"}, {"measurement": "GI50", "setting": "A375 melanoma cells [7]; A375, 5-day exposure", "result": 14.4, "unit": "µM"}, {"measurement": "GI50", "setting": "A375 melanoma cells [7]; Homo sapiens, A-375, 24 h, A375, 24-hour exposure", "result": 14.3, "unit": "µM"}, {"measurement": "GI50", "setting": "A375 melanoma cells [7]; Homo sapiens, A-375, 120 h, A375, 5-day exposure", "result": 16.2, "unit": "µM"}, {"measurement": "GI50", "setting": "UACC62 melanoma cells; Homo sapiens, UACC-62, 120 h", "result": 18.5, "unit": "µM"}, {"measurement": "GI50", "setting": "UACC62 melanoma cells", "result": 18.1, "unit": "µM"}, {"measurement": "Time dependence of cell killing", "setting": "A375 melanoma cells [8]", "result": "time-independent"}, {"measurement": "GI50", "setting": "Malme-3M melanoma cells", "result": 13.3, "unit": "µM"}, {"measurement": "IC50", "setting": "[9]", "result": "10 to 21", "unit": "µM"}, {"measurement": "Effect on tumour xenograft growth", "setting": "[10]", "result": "growth delaying effect"}, {"measurement": "IC50", "setting": "WM266-4 melanoma cells [11]; Homo sapiens, WM 266-4", "result": 20.9, "unit": "µM"}, {"measurement": "Rank of decrease in proliferation (viability)", "setting": "WM266-4 melanoma cells [11]", "result": "** (moderate apoptosis induction and decrease in proliferation (35-70%))"}, {"measurement": "Rank of decrease in proliferation (viability)", "setting": "A375 melanoma cells [12]", "result": "** (moderate apoptosis induction and decrease in proliferation (35-70%))"}, {"measurement": "IC50", "setting": "A375 melanoma cells [12]; Homo sapiens, A-375", "result": 19.2, "unit": "µM"}, {"measurement": "Rank of decrease in proliferation (viability)", "setting": "G-361 melanoma cells [13]", "result": "*** (good apoptosis induction and decrease in proliferation (>70%))"}, {"measurement": "IC50", "setting": "G-361 melanoma cells [13]; Homo sapiens", "result": 11, "unit": "µM"}]}, {"compound": "N.N.[Cl][Pt][Cl]", "note": "[Cisplatin]", "values": [{"measurement": "Rank of apoptosis induction", "setting": "WM266-4 melanoma cells [1]", "result": "*** (good apoptosis induction and decrease in proliferation (>70%))"}, {"measurement": "EC50", "setting": "WM266-4 melanoma cells [1]", "result": "33.3 to 100", "unit": "µM"}, {"measurement": "Rank of apoptosis induction", "setting": "A375 melanoma cells [2]", "result": "** (moderate apoptosis induction and decrease in proliferation (35-70%))"}, {"measurement": "EC50", "setting": "A375 melanoma cells [2]; caspase 3/7", "result": 5.67, "unit": "µM"}, {"measurement": "Rank of apoptosis induction", "setting": "G-361 melanoma cells [3]", "result": "** (moderate apoptosis induction and decrease in proliferation (35-70%))"}, {"measurement": "EC50", "setting": "G-361 melanoma cells [3]; caspase 3/7", "result": "33.3 to 100", "unit": "µM"}, {"measurement": "Rank of decrease in proliferation (viability)", "setting": "WM266-4 melanoma cells [11]", "result": "* (weak apoptosis induction and decrease in proliferation (<35%))"}, {"measurement": "IC50", "setting": "WM266-4 melanoma cells [11]", "result": 62, "unit": "µM"}, {"measurement": "Rank of decrease in proliferation (viability)", "setting": "A375 melanoma cells [12]", "result": "** (moderate apoptosis induction and decrease in proliferation (35-70%))"}, {"measurement": "IC50", "setting": "A375 melanoma cells [12]", "result": 21.8, "unit": "µM"}, {"measurement": "Rank of decrease in proliferation (viability)", "setting": "G-361 melanoma cells [13]", "result": "** (moderate apoptosis induction and decrease in proliferation (35-70%))"}, {"measurement": "IC50", "setting": "G-361 melanoma cells [13]", "result": 18, "unit": "µM"}]}]}
